In ChEMBL document CHEMBL3991601, “The target landscape of clinical kinase drugs” (Science, 2017):
Activity calls are given as the source filed them. For most assays here, no stated cut-off is given here; in the data, actives have a measured Kd and inactives only a lower limit.

Experiments:
LIM domain kinase 1 = LIM domain kinase 1 (Homo sapiens, UniProt P53667)
[1] = target: T1, Mitogen-activated protein kinase 15 (Homo sapiens, UniProt Q8TD08)
T1 sequence (Q8TD08 whole entry): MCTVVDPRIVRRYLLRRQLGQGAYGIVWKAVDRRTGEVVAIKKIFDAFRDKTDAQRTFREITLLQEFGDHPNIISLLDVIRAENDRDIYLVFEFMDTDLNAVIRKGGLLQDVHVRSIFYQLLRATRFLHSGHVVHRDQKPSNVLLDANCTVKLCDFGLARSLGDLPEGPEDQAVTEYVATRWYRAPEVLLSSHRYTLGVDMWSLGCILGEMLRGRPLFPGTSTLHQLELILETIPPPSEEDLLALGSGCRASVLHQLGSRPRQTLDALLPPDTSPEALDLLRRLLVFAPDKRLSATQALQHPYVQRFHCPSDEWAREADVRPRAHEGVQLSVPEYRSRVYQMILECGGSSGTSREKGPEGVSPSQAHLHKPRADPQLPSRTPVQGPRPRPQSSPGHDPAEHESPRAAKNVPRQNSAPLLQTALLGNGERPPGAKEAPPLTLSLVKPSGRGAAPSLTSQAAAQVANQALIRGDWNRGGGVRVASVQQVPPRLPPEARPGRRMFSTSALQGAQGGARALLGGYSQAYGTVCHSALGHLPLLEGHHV

[2] = target: T2, Ribosyldihydronicotinamide dehydrogenase [quinone] (Homo sapiens, UniProt P16083)
T2 sequence (P16083 whole entry): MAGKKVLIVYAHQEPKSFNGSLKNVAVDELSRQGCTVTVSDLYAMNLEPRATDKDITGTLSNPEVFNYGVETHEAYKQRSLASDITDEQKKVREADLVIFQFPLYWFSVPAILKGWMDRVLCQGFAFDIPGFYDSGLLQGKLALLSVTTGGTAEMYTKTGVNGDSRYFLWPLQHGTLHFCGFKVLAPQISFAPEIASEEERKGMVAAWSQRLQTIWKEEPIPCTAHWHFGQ

[3] = target: T3, Dynamin-like GTPase OPA1, mitochondrial (Homo sapiens, UniProt O60313)
T3 sequence (O60313 whole entry): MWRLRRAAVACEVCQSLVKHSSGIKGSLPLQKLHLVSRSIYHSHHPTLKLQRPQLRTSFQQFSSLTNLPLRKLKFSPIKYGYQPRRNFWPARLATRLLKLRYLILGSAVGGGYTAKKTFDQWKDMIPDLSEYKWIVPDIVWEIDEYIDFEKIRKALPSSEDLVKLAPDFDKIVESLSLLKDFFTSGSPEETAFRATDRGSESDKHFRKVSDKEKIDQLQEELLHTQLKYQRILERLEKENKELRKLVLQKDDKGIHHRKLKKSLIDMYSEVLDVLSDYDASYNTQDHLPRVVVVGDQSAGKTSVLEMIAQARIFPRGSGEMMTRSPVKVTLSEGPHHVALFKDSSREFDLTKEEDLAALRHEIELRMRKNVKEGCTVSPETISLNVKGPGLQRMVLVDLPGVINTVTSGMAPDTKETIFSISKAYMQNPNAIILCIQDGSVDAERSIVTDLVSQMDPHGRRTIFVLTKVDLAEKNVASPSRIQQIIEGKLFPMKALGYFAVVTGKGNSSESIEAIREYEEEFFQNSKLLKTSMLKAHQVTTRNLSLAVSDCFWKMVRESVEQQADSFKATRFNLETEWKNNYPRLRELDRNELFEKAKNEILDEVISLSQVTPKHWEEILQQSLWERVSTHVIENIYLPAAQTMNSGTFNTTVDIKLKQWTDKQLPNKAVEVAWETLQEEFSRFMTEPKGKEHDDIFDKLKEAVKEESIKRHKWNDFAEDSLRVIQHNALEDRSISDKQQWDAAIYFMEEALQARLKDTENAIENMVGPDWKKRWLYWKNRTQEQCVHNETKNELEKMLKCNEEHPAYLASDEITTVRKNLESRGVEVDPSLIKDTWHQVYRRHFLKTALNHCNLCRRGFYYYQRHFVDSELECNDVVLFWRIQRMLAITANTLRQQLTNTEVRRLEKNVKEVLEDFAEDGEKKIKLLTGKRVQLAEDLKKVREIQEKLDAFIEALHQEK

[4] = target: Protein-tyrosine kinase 6 (Homo sapiens, UniProt Q13882)
[5] = target: Receptor-interacting serine/threonine-protein kinase 2 (Homo sapiens, UniProt O43353)
[6] = target: Ribosomal protein S6 kinase alpha-3 (Homo sapiens, UniProt P51812)
TGF-beta receptor type-1 = target: T4, TGF-beta receptor type-1 (Homo sapiens, UniProt P36897)
T4 sequence (P36897 whole entry): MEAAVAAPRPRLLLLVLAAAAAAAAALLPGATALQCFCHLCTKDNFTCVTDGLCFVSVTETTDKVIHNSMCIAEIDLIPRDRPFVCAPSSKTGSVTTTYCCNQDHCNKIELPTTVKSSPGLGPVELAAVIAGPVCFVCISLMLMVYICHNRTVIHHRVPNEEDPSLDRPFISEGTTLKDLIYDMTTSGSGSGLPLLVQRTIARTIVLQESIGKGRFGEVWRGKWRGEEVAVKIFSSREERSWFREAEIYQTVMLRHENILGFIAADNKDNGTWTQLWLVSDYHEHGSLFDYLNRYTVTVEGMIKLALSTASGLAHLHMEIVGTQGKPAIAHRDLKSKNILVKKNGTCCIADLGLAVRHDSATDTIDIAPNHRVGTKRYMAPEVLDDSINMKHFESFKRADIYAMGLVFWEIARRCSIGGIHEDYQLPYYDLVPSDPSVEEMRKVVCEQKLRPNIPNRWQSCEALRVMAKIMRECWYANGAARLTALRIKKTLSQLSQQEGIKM

[7] = target: T5, Serine/threonine-protein kinase ULK3 (Homo sapiens, UniProt Q6PHR2)
T5 sequence (Q6PHR2 whole entry): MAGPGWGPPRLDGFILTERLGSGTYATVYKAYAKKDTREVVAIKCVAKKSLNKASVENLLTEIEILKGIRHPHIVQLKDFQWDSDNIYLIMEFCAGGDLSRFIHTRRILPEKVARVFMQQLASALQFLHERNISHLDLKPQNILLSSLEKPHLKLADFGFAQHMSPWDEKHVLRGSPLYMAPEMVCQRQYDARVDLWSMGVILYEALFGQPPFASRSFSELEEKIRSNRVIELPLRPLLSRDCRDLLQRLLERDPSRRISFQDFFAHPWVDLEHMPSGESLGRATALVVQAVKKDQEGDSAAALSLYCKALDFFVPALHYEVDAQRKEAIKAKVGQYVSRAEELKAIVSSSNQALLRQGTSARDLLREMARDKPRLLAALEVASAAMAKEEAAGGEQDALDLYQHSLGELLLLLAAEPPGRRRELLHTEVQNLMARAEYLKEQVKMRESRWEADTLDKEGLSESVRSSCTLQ

Ribosomal protein S6 kinase alpha-3, sequence (P51812 whole entry): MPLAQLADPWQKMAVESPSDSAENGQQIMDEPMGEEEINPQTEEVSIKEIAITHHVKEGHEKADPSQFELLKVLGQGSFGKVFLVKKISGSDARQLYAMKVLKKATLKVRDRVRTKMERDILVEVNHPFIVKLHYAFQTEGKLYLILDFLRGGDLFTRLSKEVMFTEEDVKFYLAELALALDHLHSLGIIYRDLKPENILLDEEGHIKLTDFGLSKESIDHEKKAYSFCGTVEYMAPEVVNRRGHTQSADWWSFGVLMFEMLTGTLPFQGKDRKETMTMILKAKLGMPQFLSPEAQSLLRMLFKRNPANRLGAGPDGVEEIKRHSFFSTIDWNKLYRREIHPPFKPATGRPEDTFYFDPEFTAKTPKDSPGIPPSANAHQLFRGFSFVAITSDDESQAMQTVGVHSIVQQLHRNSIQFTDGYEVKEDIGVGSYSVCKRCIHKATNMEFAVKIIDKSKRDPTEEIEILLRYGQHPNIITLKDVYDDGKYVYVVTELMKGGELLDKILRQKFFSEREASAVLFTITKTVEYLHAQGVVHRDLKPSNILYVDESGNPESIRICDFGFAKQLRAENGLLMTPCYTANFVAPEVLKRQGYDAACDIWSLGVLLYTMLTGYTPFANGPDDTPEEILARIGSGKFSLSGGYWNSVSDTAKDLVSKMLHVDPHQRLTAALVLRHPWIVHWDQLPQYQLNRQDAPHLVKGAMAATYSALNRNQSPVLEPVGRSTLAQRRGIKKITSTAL
Protein-tyrosine kinase 6, sequence (Q13882 whole entry): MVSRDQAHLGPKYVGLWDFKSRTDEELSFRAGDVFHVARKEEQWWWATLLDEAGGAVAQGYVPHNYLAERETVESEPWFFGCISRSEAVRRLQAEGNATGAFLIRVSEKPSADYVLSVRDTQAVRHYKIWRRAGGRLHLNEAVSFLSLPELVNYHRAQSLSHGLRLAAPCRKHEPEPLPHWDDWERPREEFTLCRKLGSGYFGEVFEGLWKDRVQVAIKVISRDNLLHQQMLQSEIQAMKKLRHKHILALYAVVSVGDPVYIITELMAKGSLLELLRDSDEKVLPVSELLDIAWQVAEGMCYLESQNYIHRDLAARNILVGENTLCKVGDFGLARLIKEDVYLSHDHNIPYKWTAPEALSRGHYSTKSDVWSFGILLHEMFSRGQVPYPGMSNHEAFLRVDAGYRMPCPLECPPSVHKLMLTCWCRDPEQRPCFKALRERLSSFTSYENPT
Receptor-interacting serine/threonine-protein kinase 2, sequence (O43353 whole entry): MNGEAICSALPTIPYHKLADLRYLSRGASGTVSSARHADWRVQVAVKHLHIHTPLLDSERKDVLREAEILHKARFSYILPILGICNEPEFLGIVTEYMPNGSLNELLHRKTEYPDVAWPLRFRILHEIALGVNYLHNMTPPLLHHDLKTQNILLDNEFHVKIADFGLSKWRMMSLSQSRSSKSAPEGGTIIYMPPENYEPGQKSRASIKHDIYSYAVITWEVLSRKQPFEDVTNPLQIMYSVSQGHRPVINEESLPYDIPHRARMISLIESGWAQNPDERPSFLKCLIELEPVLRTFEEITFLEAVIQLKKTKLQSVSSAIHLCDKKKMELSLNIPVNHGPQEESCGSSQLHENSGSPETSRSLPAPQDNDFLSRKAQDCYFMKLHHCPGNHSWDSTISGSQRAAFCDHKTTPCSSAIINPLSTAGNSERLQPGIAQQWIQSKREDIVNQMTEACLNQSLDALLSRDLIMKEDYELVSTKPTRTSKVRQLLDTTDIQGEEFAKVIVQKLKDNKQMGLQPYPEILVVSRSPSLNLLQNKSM
LIM domain kinase 1, sequence (P53667 whole entry, the tested form may be a part): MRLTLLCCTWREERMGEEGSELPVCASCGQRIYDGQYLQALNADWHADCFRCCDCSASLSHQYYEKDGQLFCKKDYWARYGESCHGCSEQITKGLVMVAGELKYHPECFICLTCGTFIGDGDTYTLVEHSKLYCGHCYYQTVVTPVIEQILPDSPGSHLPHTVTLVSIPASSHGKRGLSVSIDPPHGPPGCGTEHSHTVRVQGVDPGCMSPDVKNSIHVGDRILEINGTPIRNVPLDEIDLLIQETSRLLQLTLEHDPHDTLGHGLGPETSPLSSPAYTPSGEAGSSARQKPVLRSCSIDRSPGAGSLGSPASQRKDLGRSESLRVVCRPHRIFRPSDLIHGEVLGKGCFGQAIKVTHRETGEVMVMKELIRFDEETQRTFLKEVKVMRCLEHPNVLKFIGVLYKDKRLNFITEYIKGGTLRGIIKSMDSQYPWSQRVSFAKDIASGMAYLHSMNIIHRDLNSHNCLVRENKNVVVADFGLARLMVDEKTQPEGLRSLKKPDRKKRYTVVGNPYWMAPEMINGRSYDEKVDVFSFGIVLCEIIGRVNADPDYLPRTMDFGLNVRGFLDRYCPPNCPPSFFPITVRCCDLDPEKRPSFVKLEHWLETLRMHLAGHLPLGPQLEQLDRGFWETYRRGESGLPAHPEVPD

| SMILES | Kd (LIM domain kinase 1) | Kd [1] | Kd [2] | Kd [3] | Kd [4] | Kd [5] | Kd [6] | Kd (TGF-beta receptor type-1) | Kd [7] |
| --- | --- | --- | --- | --- | --- | --- | --- | --- | --- |
| Cc1ccc(-n2nc(C(C)(C)C)cc2NC(=O)NCc2cc(F)ccc2Oc2ccc3c(cnn3CCO)c2)cc1 [PEXMETINIB] | > 30 µM (inactive) | > 30 µM (inactive) | > 30 µM (inactive) | > 30 µM (inactive) | > 30 µM (inactive) | > 30 µM (inactive) | > 30 µM (inactive) | > 30 µM (inactive) | > 30 µM (inactive) |
| Cn1cc(-c2ccc(F)c(C(F)(F)F)c2)nc1C1CCN(c2ncnc3[nH]ncc23)CC1 [LY-2584702] | > 30 µM (inactive) | > 30 µM (inactive) | > 30 µM (inactive) | > 30 µM (inactive) | > 30 µM (inactive) | > 30 µM (inactive) | > 30 µM (inactive) | > 30 µM (inactive) | > 30 µM (inactive) |
| CC[C@H](Nc1ncnc2[nH]cnc12)c1nc2cccc(F)c2c(=O)n1-c1ccccc1 [IDELALISIB] | > 30 µM (inactive) | > 30 µM (inactive) | > 30 µM (inactive) | > 30 µM (inactive) | > 30 µM (inactive) | > 30 µM (inactive) | > 30 µM (inactive) | > 30 µM (inactive) | > 30 µM (inactive) |
| O=C1NC(=O)/C(=C/c2ccc3nccc(-c4ccncc4)c3c2)S1 [GSK-1059615] | > 30 µM (inactive) | > 30 µM (inactive) | > 30 µM (inactive) | > 30 µM (inactive) | > 30 µM (inactive) | > 30 µM (inactive) | > 30 µM (inactive) | > 30 µM (inactive) | > 30 µM (inactive) |
| CN1N=C(N)c2cn([C@@H]3O[C@H](COP(=O)(O)O)[C@@H](O)[C@H]3O)c3ncnc1c23 [TRICIRIBINE PHOSPHATE] | > 30 µM (inactive) | > 30 µM (inactive) | > 30 µM (inactive) | > 30 µM (inactive) | > 30 µM (inactive) | > 30 µM (inactive) | > 30 µM (inactive) | > 30 µM (inactive) | > 30 µM (inactive) |
| CN1CCC(CNc2ccc3ncc(-c4cccc(OC(F)(F)F)c4)n3n2)CC1 [SGI-1776] | > 30 µM (inactive) | > 30 µM (inactive) | > 30 µM (inactive) | > 30 µM (inactive) | > 30 µM (inactive) | > 30 µM (inactive) | > 30 µM (inactive) | > 30 µM (inactive) | > 30 µM (inactive) |
| CC(C)Nc1cc(-c2c[nH]c(C(=O)N[C@H](CO)c3cccc(Cl)c3)c2)c(Cl)cn1 [ULIXERTINIB] | > 30 µM (inactive) | > 30 µM (inactive) | > 30 µM (inactive) | > 30 µM (inactive) | > 30 µM (inactive) | > 30 µM (inactive) | > 30 µM (inactive) | > 30 µM (inactive) | > 30 µM (inactive) |
| CC[C@@H]1C(=O)N(C)c2cnc(Nc3ccc(C(=O)N[C@H]4CC[C@H](N5CCN(CC6CC6)CC5)CC4)cc3OC)nc2N1C(C)C [VOLASERTIB] | > 30 µM (inactive) | > 30 µM (inactive) | > 30 µM (inactive) | > 30 µM (inactive) | > 30 µM (inactive) | > 30 µM (inactive) | > 30 µM (inactive) | > 30 µM (inactive) | > 30 µM (inactive) |
| CN1CC[C@@H](c2c(O)cc(O)c3c(=O)cc(-c4ccccc4Cl)oc23)[C@@H]1CO | > 30 µM (inactive) | > 30 µM (inactive) | > 30 µM (inactive) | > 30 µM (inactive) | > 30 µM (inactive) | > 30 µM (inactive) | > 30 µM (inactive) | > 30 µM (inactive) | > 30 µM (inactive) |
| Cc1ccc(S(=O)(=O)Nc2nc3ccccc3nc2Nc2ccc3nsnc3c2)cc1 | > 30 µM (inactive) | > 30 µM (inactive) | > 30 µM (inactive) | > 30 µM (inactive) | > 30 µM (inactive) | > 30 µM (inactive) | > 30 µM (inactive) | > 30 µM (inactive) | > 30 µM (inactive) |
| COc1cc2nccc(Oc3ccc(NC(=O)NC4CC4)c(Cl)c3)c2cc1C(N)=O [LENVATINIB] | > 30 µM (inactive) | > 30 µM (inactive) | 1.52 µM (active) | > 30 µM (inactive) | 0.173 µM | 0.011 µM (active) | > 30 µM (inactive) | > 30 µM (inactive) | > 30 µM (inactive) |
| COC(=O)N[C@@H](C)CNc1nccc(-c2cn(C(C)C)nc2-c2cc(Cl)cc(NS(C)(=O)=O)c2F)n1 [ENCORAFENIB] | 0.026 µM (active) | > 30 µM (inactive) | > 30 µM (inactive) | > 30 µM (inactive) | > 30 µM (inactive) | 0.323 µM (active) | > 30 µM (inactive) | > 30 µM (inactive) | > 30 µM (inactive) |
| CCS(=O)(=O)N1CC(CC#N)(n2cc(-c3ncnc4[nH]ccc34)cn2)C1 [BARICITINIB] | > 30 µM (inactive) | > 30 µM (inactive) | > 30 µM (inactive) | > 30 µM (inactive) | > 30 µM (inactive) | > 30 µM (inactive) | > 30 µM (inactive) | > 30 µM (inactive) | > 30 µM (inactive) |
| Cc1c(F)cc(C(=O)NC2CC2)cc1-c1ccc(C(=O)NCC(C)(C)C)cn1 [LOSMAPIMOD] | > 30 µM (inactive) | > 30 µM (inactive) | > 30 µM (inactive) | > 30 µM (inactive) | > 30 µM (inactive) | > 30 µM (inactive) | > 30 µM (inactive) | > 30 µM (inactive) | > 30 µM (inactive) |
